Results on six compounds are retold here after ChEMBL document CHEMBL1144019 (Bioorg Med Chem, 2008).

Converted amounts (≈) assume the structure as drawn.

The test system of one data set is Staphylococcus aureus. Put plainly: Antibacterial activity against Staphylococcus aureus Smith by standard serial agar dilution method. The data set is classed as functional. (In agar dilution the substance is mixed into plates at graded concentrations.)
The subject of a further data set is Streptococcus pneumoniae. Put plainly: Antibacterial activity against penicillin-resistant Streptococcus pneumoniae SR-16675 by standard serial agar dilution method. The data set is classed as functional.
Data set [1] concerns Escherichia coli. Put plainly: Antibacterial activity against Escherichia coli SR-21003 by standard serial agar dilution method. The data set is classed as functional.
Data set [2] has as its system Escherichia coli. Put plainly: Antibacterial activity against Toho 2 producing Escherichia coli by standard serial agar dilution method. The data set is classed as functional.
For data set [3], the system named is Enterobacter cloacae. Put plainly: Antibacterial activity against Enterobacter cloacae ATCC 13047 by standard serial agar dilution method. The data set is classed as functional.
The test system of data set [4] is Enterobacter cloacae. Put plainly: Antibacterial activity against AmpC producing Enterobacter cloacae SR-4321 by standard serial agar dilution method. The data set is classed as functional.
Data set [5] has as its system Pseudomonas aeruginosa. The data set is described as follows: Antibacterial activity against Pseudomonas aeruginosa SR24 by standard serial agar dilution method. The data set is classed as functional.
The subject of data set [6] is Pseudomonas aeruginosa. Put plainly: Antibacterial activity against AmpC hyperproducing Pseudomonas aeruginosa SR24-12 by standard serial agar dilution method. The data set is classed as functional.
The test system of data set [7] is Pseudomonas aeruginosa. The data set is described as follows: Antibacterial activity against Pseudomonas aeruginosa SR-5393 by standard serial agar dilution method. The data set is classed as functional.
Data set [8] has as its system Pseudomonas aeruginosa. Put plainly: Antibacterial activity against imipenem-resistant Pseudomonas aeruginosa SR-6554 by standard serial agar dilution method. The data set is classed as functional.
The subject of data set [9] is Haemophilus influenzae. Put plainly: Antibacterial activity against Haemophilus influenzae ATCC 49766 by standard serial agar dilution method. The data set is classed as functional.
For data set [10], the system named is Haemophilus influenzae. Put plainly: Antibacterial activity against beta-lactamase negative ampicillin-resistant Haemophilus influenzae SR-11435 by standard serial agar dilution method. The data set is classed as functional.
Another data set concerns Moraxella catarrhalis. The data set is described as follows: Antibacterial activity against Moraxella catarrhalis ATCC 43617 by standard serial agar dilution method. The data set is classed as functional.
Data set [11] concerns Pseudomonas aeruginosa. Put plainly: Antibacterial activity against Pseudomonas aeruginosa SR-24722 isolate by standard serial agar dilution method. The data set is classed as functional.
The subject of data set [12] is Pseudomonas aeruginosa. The data set is described as follows: Antibacterial activity against Pseudomonas aeruginosa SR-24736 isolate by standard serial agar dilution method. The data set is classed as functional.
Data set [13] relates to Pseudomonas aeruginosa. The data set is described as follows: Antibacterial activity against Pseudomonas aeruginosa SR-24765 isolate by standard serial agar dilution method. The data set is classed as functional.
Data set [14] deals with Pseudomonas aeruginosa. The data set is described as follows: Antibacterial activity against Pseudomonas aeruginosa SR-24770 isolate by standard serial agar dilution method. The data set is classed as functional.
The subject of data set [15] is Pseudomonas aeruginosa. The data set is described as follows: Antibacterial activity against Pseudomonas aeruginosa SR-24797 isolate by standard serial agar dilution method. The data set is classed as functional.
Data set [16] relates to Pseudomonas aeruginosa. The data set is described as follows: Antibacterial activity against Pseudomonas aeruginosa SR-24816 isolate by standard serial agar dilution method. The data set is classed as functional.
A short description of data set [17]: Stability in presence of AmpC beta-lactamase. The data set is classed as ADME.
For data set [18], the system named is Pseudomonas aeruginosa. The data set is described as follows: Antibacterial activity in CAZ-susceptible Pseudomonas aeruginosa SR24 infected ICR mouse after 7 days. The data set is classed as functional. Conditions: 168 h.
Data set [19] concerns Pseudomonas aeruginosa. The data set is described as follows: Antibacterial activity in CAZ-resistant Pseudomonas aeruginosa SR24-12 infected ICR mouse after 7 days. The data set is classed as functional. Conditions: 168 h.

The ED50 is the midpoint of the dose-response relation. Lower therefore signals greater potency.

Take `C[C@H](O/N=C(\C(=O)N[C@@H]1C(=O)N2C(C(=O)[O-])=C(C[n+]3cccc4c3ccn4CC(N)=O)CS[C@H]12)c1nc(N)sc1Cl)C(=O)O`: the MIC in the data set with Staphylococcus aureus is 2 µg/mL (≈ 3.02 µM); against Streptococcus pneumoniae, 2 µg/mL (≈ 3.02 µM); against Escherichia coli [1], 0.25 µg/mL (≈ 0.377 µM); against Escherichia coli [2], 2 µg/mL (≈ 3.02 µM); against Enterobacter cloacae [3], 0.5 µg/mL (≈ 0.754 µM); against Enterobacter cloacae [4], 4 µg/mL (≈ 6.03 µM). Also, the MIC stood at 1 µg/mL (≈ 1.51 µM) in the data set with Pseudomonas aeruginosa [5]; 4 µg/mL (≈ 6.03 µM) in the data set with Pseudomonas aeruginosa [6]; 4 µg/mL (≈ 6.03 µM) against Pseudomonas aeruginosa [7]; 16 µg/mL (≈ 24.1 µM) in the data set with Pseudomonas aeruginosa [8]; 0.032 µg/mL (≈ 0.0483 µM) in the data set on Haemophilus influenzae [9]; 0.063 µg/mL (≈ 0.095 µM) in the data set with Haemophilus influenzae [10]. This compound also registered an MIC against Moraxella catarrhalis of 0.016 µg/mL (≈ 0.0241 µM).

Regarding `C[C@H](O/N=C(\C(=O)N[C@@H]1C(=O)N2C(C(=O)[O-])=C(C[n+]3cccc4c3ccn4CCO)CS[C@H]12)c1nc(N)sc1Cl)C(=O)O`, the MIC is 2 µg/mL (≈ 3.08 µM) with Staphylococcus aureus; 4 µg/mL (≈ 6.15 µM) against Streptococcus pneumoniae; 0.25 µg/mL (≈ 0.385 µM) against Escherichia coli [1]; 2 µg/mL (≈ 3.08 µM) in the data set with Escherichia coli [2]; 0.5 µg/mL (≈ 0.769 µM) against Enterobacter cloacae [3]; 4 µg/mL (≈ 6.15 µM) against Enterobacter cloacae [4]. For the same compound, the MIC in the data set with Pseudomonas aeruginosa [5] turned out to be 1 µg/mL (≈ 1.54 µM); against Pseudomonas aeruginosa [6], 8 µg/mL (≈ 12.3 µM); against Pseudomonas aeruginosa [7], 4 µg/mL (≈ 6.15 µM); with Pseudomonas aeruginosa [8] it was 16 µg/mL (≈ 24.6 µM); against Haemophilus influenzae [9], 0.032 µg/mL (≈ 0.0492 µM); in the data set with Haemophilus influenzae [10], 0.063 µg/mL (≈ 0.0969 µM). The same compound came in with an MIC against Moraxella catarrhalis of 0.016 µg/mL (≈ 0.0246 µM).

On to `CNCCCn1ccc2c1ccc[n+]2CC1=C(C(=O)[O-])N2C(=O)[C@@H](NC(=O)/C(=N\O[C@@H](C)C(=O)O)c3nc(N)sc3Cl)[C@H]2SC1`, for which the MIC in the data set on Staphylococcus aureus stood at 2 µg/mL (≈ 2.95 µM); in the data set with Streptococcus pneumoniae, 4 µg/mL (≈ 5.91 µM); in the data set on Escherichia coli [1], 0.5 µg/mL (≈ 0.738 µM); against Escherichia coli [2], 2 µg/mL (≈ 2.95 µM); against Enterobacter cloacae [3] it was 0.5 µg/mL (≈ 0.738 µM); in the data set with Enterobacter cloacae [4], 2 µg/mL (≈ 2.95 µM). The MIC was 1 µg/mL (≈ 1.48 µM) in the data set with Pseudomonas aeruginosa [5]; 4 µg/mL (≈ 5.91 µM) in the data set with Pseudomonas aeruginosa [6]; 2 µg/mL (≈ 2.95 µM) in the data set with Pseudomonas aeruginosa [7]; 8 µg/mL (≈ 11.8 µM) against Pseudomonas aeruginosa [8]; 0.032 µg/mL (≈ 0.0473 µM) in the data set with Haemophilus influenzae [9]; 0.063 µg/mL (≈ 0.093 µM) against Haemophilus influenzae [10]. The MIC in the data set on Moraxella catarrhalis was 0.016 µg/mL (≈ 0.0236 µM); against Pseudomonas aeruginosa [11] it was 8 µg/mL (≈ 11.8 µM); against Pseudomonas aeruginosa [12], 8 µg/mL (≈ 11.8 µM); in the data set on Pseudomonas aeruginosa [13], 8 µg/mL (≈ 11.8 µM); in the data set with Pseudomonas aeruginosa [14], 8 µg/mL (≈ 11.8 µM); against Pseudomonas aeruginosa [15] it was 8 µg/mL (≈ 11.8 µM). Besides, the MIC with Pseudomonas aeruginosa [16] was found to be 4 µg/mL (≈ 5.91 µM). Moreover, in data set [17], the Stability turned out to be 78.4%.

Turning to `CNCCn1ccc2c1ccc[n+]2CC1=C(C(=O)[O-])N2C(=O)[C@@H](NC(=O)/C(=N\O[C@@H](C)C(=O)O)c3nc(N)sc3Cl)[C@H]2SC1`, the MIC against Staphylococcus aureus was 2 µg/mL (≈ 3.02 µM); in the data set with Streptococcus pneumoniae, 4 µg/mL (≈ 6.03 µM); in the data set on Escherichia coli [1], 0.5 µg/mL (≈ 0.754 µM); in the data set on Escherichia coli [2], 2 µg/mL (≈ 3.02 µM); in the data set with Enterobacter cloacae [3], 0.5 µg/mL (≈ 0.754 µM); in the data set with Enterobacter cloacae [4], 2 µg/mL (≈ 3.02 µM). For the same compound, the MIC was found to be 1 µg/mL (≈ 1.51 µM) with Pseudomonas aeruginosa [5]; 4 µg/mL (≈ 6.03 µM) in the data set on Pseudomonas aeruginosa [6]; 2 µg/mL (≈ 3.02 µM) against Pseudomonas aeruginosa [7]; 8 µg/mL (≈ 12.1 µM) against Pseudomonas aeruginosa [8]; 0.032 µg/mL (≈ 0.0483 µM) in the data set with Haemophilus influenzae [9]; 0.125 µg/mL (≈ 0.188 µM) in the data set with Haemophilus influenzae [10]. The compound also had an MIC against Moraxella catarrhalis of 0.032 µg/mL (≈ 0.0483 µM).

`CNCCCn1c(N)nc2c1ccc[n+]2CC1=C(C(=O)[O-])N2C(=O)[C@@H](NC(=O)/C(=N\O[C@@H](C)C(=O)O)c3nc(N)sc3Cl)[C@H]2SC1`: the MIC against Staphylococcus aureus was 2 µg/mL (≈ 2.89 µM); against Streptococcus pneumoniae, 2 µg/mL (≈ 2.89 µM); against Escherichia coli [1], 0.25 µg/mL (≈ 0.361 µM); with Escherichia coli [2], 2 µg/mL (≈ 2.89 µM); in the data set on Enterobacter cloacae [3] it was 0.5 µg/mL (≈ 0.721 µM); with Enterobacter cloacae [4], 2 µg/mL (≈ 2.89 µM). Besides, the MIC with Pseudomonas aeruginosa [5] amounted to 0.5 µg/mL (≈ 0.721 µM); with Pseudomonas aeruginosa [6], 4 µg/mL (≈ 5.77 µM); against Pseudomonas aeruginosa [7] it was 2 µg/mL (≈ 2.89 µM); against Pseudomonas aeruginosa [8] it was 8 µg/mL (≈ 11.5 µM); against Haemophilus influenzae [9] it was 0.032 µg/mL (≈ 0.0462 µM); in the data set with Haemophilus influenzae [10] it was 0.063 µg/mL (≈ 0.0909 µM). Further, the MIC in the data set with Moraxella catarrhalis was 0.016 µg/mL (≈ 0.0231 µM); against Pseudomonas aeruginosa [11] it was 4 µg/mL (≈ 5.77 µM); in the data set with Pseudomonas aeruginosa [12], 2 µg/mL (≈ 2.89 µM); in the data set on Pseudomonas aeruginosa [13], 4 µg/mL (≈ 5.77 µM); against Pseudomonas aeruginosa [14], 4 µg/mL (≈ 5.77 µM); in the data set with Pseudomonas aeruginosa [15], 4 µg/mL (≈ 5.77 µM). Also, the MIC against Pseudomonas aeruginosa [16] was found to be 2 µg/mL (≈ 2.89 µM). Besides, the results for the ED50 in the data set on Pseudomonas aeruginosa [18] and in the data set with Pseudomonas aeruginosa [19] were 1.33 mg/kg and 4.69 mg/kg, respectively. In addition, the Stability in data set [17] was found to be 90.2%.

Turning to `C[C@H](O/N=C(\C(=O)N[C@@H]1C(=O)N2C(C(=O)[O-])=C(C[n+]3cccc4c3ccn4CC(=O)O)CS[C@H]12)c1nc(N)sc1Cl)C(=O)O`, the MIC against Staphylococcus aureus was found to be 8 µg/mL (≈ 12 µM); in the data set with Streptococcus pneumoniae it was 4 µg/mL (≈ 6.02 µM); against Escherichia coli [1], 0.5 µg/mL (≈ 0.753 µM); with Escherichia coli [2], 4 µg/mL (≈ 6.02 µM); in the data set on Enterobacter cloacae [3], 1 µg/mL (≈ 1.51 µM); in the data set on Enterobacter cloacae [4], 16 µg/mL (≈ 24.1 µM). Moreover, the MIC was 2 µg/mL (≈ 3.01 µM) with Pseudomonas aeruginosa [5]; 32 µg/mL (≈ 48.2 µM) against Pseudomonas aeruginosa [6]; 4 µg/mL (≈ 6.02 µM) against Pseudomonas aeruginosa [7]; 32 µg/mL (≈ 48.2 µM) against Pseudomonas aeruginosa [8]; 0.016 µg/mL (≈ 0.0241 µM) against Haemophilus influenzae [9]; 0.063 µg/mL (≈ 0.0949 µM) against Haemophilus influenzae [10]. The compound further had an MIC in the data set with Moraxella catarrhalis of 0.032 µg/mL (≈ 0.0482 µM).
